# Reference: US20240246960A1 (adMare Therapeutics Society, priority 2021, published 2024)
# Where two headings read alike, the source gives them in different places.
# How the values were obtained:
# [1] = molecular target: T1, DNA-PK phosphorylation at Serine 2056 (Homo sapiens, UniProt P78527); experiment: Cellular Assay for Inhibition of DNA-PK Phosphorylation at Serine 2056 (FaDu cells, neocarzinostatin, sandwich ELISA); assay type: cell-based; conditions: Table 1
# T1 construct: host or cells: FaDu
# Method in brief: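 FaDu cells were pretreated with compound (0.3% DMSO) for 1 h, then exposed to neocarzinostatin at 1 μg/mL final for 2 h to induce DSBs. Protein-normalized lysates were assayed by MSD sandwich ELISA for total and pSer2056 DNA-PK. IC50 came from variable-slope fits of % inhibition relative to DMSO and NCS controls.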
# [2] = molecular target: T2, pDNA-PK ser2056 induction in HCT116 spheroids (Homo sapiens, UniProt P78527); experiment: Multicellular tumour spheroid + radiation, pDNA-PK inhibition, HCT116; assay type: cell-based; conditions: 20 Gy
# T2 construct: endogenous in cells; host or cells: HCT116 multicellular tumour spheroids
# Method in brief: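 HCT116 spheroids (~0.5 mm) in MEM/10% FBS/10 mM glucose, 20% O2, 37 °C, pre-incubated 1 h with compound (10 or 5 μM down to 3.5 nM), irradiated 20 Gy, incubated 2 h more. Cryosections immunostained for pDNA-PK ser2056; EC50 (μM) for 50% reduction of radiation-induced pDNA-PK.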
# [3] = Example 7, spheroid, cell line HCT115 [sic], 20% O2, read-out: EC50 (pDNA-PK inhibition, immunohistochemical endpoint)
# [4] = Example 8, spheroid, read-out: Cell line: HCT116 Immunohistochemical endpoint pDNA-PK inhibition EC50
# [5] = Example 9 Study 2, 20% O2, read-out: Spheroid Cell line: HCT116 Immunohistochemical endpoint pDNA-PK inhibition EC50
IC50 [1] [nM],"EC50 [2, 3] [nM]","EC50 [2, 4] [nM]","EC50 [2, 5] [nM]",SMILES
< 100,1000 to 10000,1000 to 10000,1000 to 10000,"Fc1cn([C@H]2CC[C@@H](Oc3nc(N4CCOCC4)cc4ncccc34)CC2)cn1 [Compound 17a, 4-(5-(((1s,4s)-4-(4-fluoro-1H-imidazol-1-yl)cyclohexyl)oxy)-1,6-naphthyridin-7-yl)morpholine]"
100 to 1000,1000 to 10000,1000 to 10000,1000 to 10000,"Cc1nc(C(F)(F)F)cn1[C@H]1CC[C@@H](Oc2nc(N3CCOCC3)cc3ncccc23)CC1 [Compound 17i, 4-(5-(((1s,4s)-4-(2-methyl-4-(trifluoromethyl)-1H-imidazol-1-yl)cyclohexyl)oxy)-1,6-naphthyridin-7-yl)morpholine]"
100 to 1000,500 to 1000,500 to 1000,500 to 1000,"FC(F)(F)c1cncn1[C@H]1CC[C@@H](Oc2nc(N3CCOCC3)cc3ncccc23)CC1 [Compound 17j, 4-(5-(((1s,4s)-4-(5-(trifluoromethyl)-1H-imidazol-1-yl)cyclohexyl)oxy)-1,6-naphthyridin-7-yl)morpholine]"
< 100,500 to 1000,500 to 1000,500 to 1000,"Oc1cnc2cc(N3CCOCC3)nc(O[C@H]3CC[C@@H](Nc4ncccn4)CC3)c2c1 [Compound 19a, 7-Morpholino-5-(((1s,4s)-4-(pyrimidin-2-ylamino)cyclohexyl)oxy)-1,6-naphthyridin-3-ol]"
100 to 1000,10 to 500,10 to 500,10 to 500,"CCOCCOc1cnc(N[C@H]2CC[C@@H](Oc3nc(N4CCOCC4)cc4ncc(O)cc34)CC2)nc1 [Compound 19b, 5-(((1s,4s)-4-((5-(2-Ethoxyethoxy)pyrimidin-2-yl)amino)cyclohexyl)oxy)-7-morpholino-1,6-naphthyridin-3-ol]"
< 100,1000 to 10000,1000 to 10000,1000 to 10000,"COc1cnc(N[C@H]2CC[C@@H](Oc3nc(N4CCOCC4)cc4ncc(O)cc34)CC2)nc1 [Compound 19c, 5-(((1s,4s)-4-((5-Methoxypyrimidin-2-yl)amino)cyclohexyl)oxy)-7-morpholino-1,6-naphthyridin-3-ol]"
100 to 1000,500 to 1000,500 to 1000,500 to 1000,"c1cnc(N[C@H]2CC[C@@H](Oc3nc(N4CCOCC4)cc4ncccc34)CC2)nc1 [Compound 20a, N-((1s,4s)-4-((7-Morpholino-1,6-naphthyridin-5-yl)oxy)cyclohexyl)pyrimidin-2-amine]"
100 to 1000,10000 to 100000,,10000 to 100000,"FC(F)c1ccc2c(O[C@H]3CC[C@@H](Nc4ncccn4)CC3)nc(N3CCOCC3)cc2n1 [Compound 21, N-((1s,4s)-4-((2-(Difluoromethyl)-7-morpholino-1,6-naphthyridin-5-yl)oxy)cyclohexyl)pyrimidin-2-amine]"
< 100,500 to 1000,,500 to 1000,"FC(F)c1ccnc2cc(N3CCOCC3)nc(O[C@H]3CC[C@@H](Nc4ncccn4)CC3)c12 [Compound 22, N-((1s,4s)-4-((4-(Difluoromethyl)-7-morpholino-1,6-naphthyridin-5-yl)oxy)cyclohexyl)pyrimidin-2-amine]"
< 100,1000 to 10000,,1000 to 10000,"c1cnc2cc(N3CCOCC3)nc(O[C@H]3CC[C@@H](Nc4cncnc4)CC3)c2c1 [Compound 28, N-((1s,4s)-4-((7-morpholino-1,6-naphthyridin-5-yl)oxy)cyclohexyl)pyrimidin-5-amine]"
100 to 1000,1000 to 10000,,1000 to 10000,"Cn1cnc(N[C@H]2CC[C@@H](Oc3nc(N4CCOCC4)cc4ncccc34)CC2)n1 [Compound 31, 1-methyl-N-((1s,4s)-4-((7-morpholino-1,6-naphthyridin-5-yl)oxy)cyclohexyl)-1H-1,2,4-triazol-3-amine]"
100 to 1000,1000 to 10000,1000 to 10000,1000 to 10000,"Cc1cnc(N[C@H]2CC[C@@H](Oc3nc(N4CCOCC4)cc4ncccc34)CC2)nc1 [Compound 32, 5-Methyl-N-((1s,4s)-4-((7-morpholino-1,6-naphthyridin-5-yl)oxy)cyclohexyl)pyrimidin-2-amine]"
100 to 1000,1000 to 10000,1000 to 10000,1000 to 10000,"FC(F)(F)c1cnc(N[C@H]2CC[C@@H](Oc3nc(N4CCOCC4)cc4ncccc34)CC2)nc1 [Compound 34, N-((1s,4s)-4-((7-Morpholino-1,6-naphthyridin-5-yl)oxy)cyclohexyl)-5-(trifluoromethyl)pyrimidin-2-amine]"
< 100,1000 to 10000,1000 to 10000,1000 to 10000,"FC(F)Oc1cnc(N[C@H]2CC[C@@H](Oc3nc(N4CCOCC4)cc4ncccc34)CC2)nc1 [Compound 35, 5-(Difluoromethoxy)-N-((1s,4s)-4-((7-morpholino-1,6-naphthyridin-5-yl)oxy)cyclohexyl)pyrimidin-2-amine]"
< 100,1000 to 10000,,1000 to 10000,"COc1ccc(N[C@H]2CC[C@@H](Oc3nc(N4CCOCC4)cc4ncccc34)CC2)nn1 [Compound 38, 6-methoxy-N-((1s,4s)-4-((7-morpholino-1,6-naphthyridin-5-yl)oxy)cyclohexyl)pyridazin-3-amine]"
< 100,10 to 500,,10 to 500,"Nc1cnc(N[C@H]2CC[C@@H](Oc3nc(N4CCOCC4)cc4ncccc34)CC2)nc1 [Compound 43, N2-((1s,4s)-4-((7-morpholino-1,6-naphthyridin-5-yl)oxy)cyclohexyl)pyrimidine-2,5-diamine]"
< 100,500 to 1000,,500 to 1000,"CS(=O)(=O)Nc1cnc(N[C@H]2CC[C@@H](Oc3nc(N4CCOCC4)cc4ncccc34)CC2)nc1 [Compound 44, N-(2-(((1s,4s)-4-((7-morpholino-1,6-naphthyridin-5-yl)oxy)cyclohexyl)amino)pyrimidin-5-yl)methanesulfonamide]"
< 100,500 to 1000,,500 to 1000,"Oc1cnc(N[C@H]2CC[C@@H](Oc3nc(N4CCOCC4)cc4ncccc34)CC2)nc1 [Compound 45, 2-(((1s,4s)-4-((7-morpholino-1,6-naphthyridin-5-yl)oxy)cyclohexyl)amino)pyrimidin-5-ol]"
1000 to 10000,500 to 1000,,500 to 1000,"NS(=O)(=O)c1cnc(N[C@H]2CC[C@@H](Oc3nc(N4CCOCC4)cc4ncccc34)CC2)nc1 [Compound 46, 2-(((1s,4s)-4-((7-morpholino-1,6-naphthyridin-5-yl)oxy)cyclohexyl)amino)pyrimidine-5-sulfonamide]"
< 100,500 to 1000,,500 to 1000,"Cc1ccnc(N[C@H]2CC[C@@H](Oc3nc(N4CCOCC4)cc4ncccc34)CC2)n1 [Compound 48, 4-methyl-N-((1s,4s)-4-((7-morpholino-1,6-naphthyridin-5-yl)oxy)cyclohexyl)pyrimidin-2-amine]"
100 to 1000,1000 to 10000,,1000 to 10000,"COc1ccnc(N[C@H]2CC[C@@H](Oc3nc(N4CCOCC4)cc4ncccc34)CC2)n1 [Compound 49, 4-methoxy-N-((1s,4s)-4-((7-morpholino-1,6-naphthyridin-5-yl)oxy)cyclohexyl)pyrimidin-2-amine]"
